Results from patent US20110143948A1, “MOLECULAR SIGNATURES AND BIOMARKERS ASSOCIATED WITH MELANOMA AND METHODS OF USE THEREOF” (priority 2008, published 2011).

Test system: ncRNAs (SEQ ID NO 28-89)
Test: ncRNA arrays of melanocytes, keratinocytes, normal skin, melanoma cell lines and patient samples
Design: species or system human
Settings: for ncRNA array expression, patient 2: melanoma patient 2 sample compared to normal skin; for ncRNA array expression, patient 3: melanoma patient 3 sample compared to normal skin; for ncRNA array expression, patient 4: melanoma patient 4 sample compared to normal skin; for ncRNA array expression, patient 5: melanoma patient 5 sample compared to normal skin; for ncRNA array expression, patient 6: melanoma patient 6 sample compared to normal skin; for ncRNA array expression, patient 7: melanoma patient 7 sample compared to normal skin; for ncRNA array expression, patient 8: melanoma patient 8 sample compared to normal skin; for ncRNA array expression, patient 9: melanoma patient 9 sample compared to normal skin; for ncRNA array expression, patient 10: melanoma patient 10 sample compared to normal skin; for ncRNA array expression, patient 19: melanoma patient 19 sample compared to normal skin; for ncRNA array expression, patient 20: melanoma patient 20 sample compared to normal skin; for ncRNA array expression, patient 21: melanoma patient 21 sample compared to normal skin; for ncRNA array expression, patient 22: melanoma patient 22 sample compared to normal skin; for ncRNA array expression, patient 23: melanoma patient 23 sample compared to normal skin; for ncRNA array expression, patient 24: melanoma patient 24 sample compared to normal skin; for ncRNA array expression, patient 25: melanoma patient 25 sample compared to normal skin; for ncRNA array expression, patient 26: melanoma patient 26 sample compared to normal skin; for ncRNA array expression, patient 27: melanoma patient 27 sample compared to normal skin; for ncRNA array expression, patient 28: melanoma patient 28 sample compared to normal skin; for ncRNA array expression, patient 29: melanoma patient 29 sample compared to normal skin; for ncRNA array expression, patient 30: melanoma patient 30 sample compared to normal skin
How it was run: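 Differential ncRNA expression was defined against melanocytes or normal skin after subtracting keratinocyte-specific signals, with confirmation by qRT-PCR and Northern blot. Samples were melanoma cell lines, patient tumours, melanocytes, keratinocytes and normal skin, hybridised to a >10,000-probe (>200 nt) ncRNA array that also carries RefSeq mRNA probes.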

Substance	ncRNA array expression, patient 2	ncRNA array expression, patient 3	ncRNA array expression, patient 4	ncRNA array expression, patient 5	ncRNA array expression, patient 6	ncRNA array expression, patient 7	ncRNA array expression, patient 8	ncRNA array expression, patient 9	ncRNA array expression, patient 10	ncRNA array expression, patient 19	ncRNA array expression, patient 20	ncRNA array expression, patient 21	ncRNA array expression, patient 22	ncRNA array expression, patient 23	ncRNA array expression, patient 24	ncRNA array expression, patient 25	ncRNA array expression, patient 26	ncRNA array expression, patient 27	ncRNA array expression, patient 28	ncRNA array expression, patient 29	other results
SEQ ID NO 32 (ATTCAAATCTTCATGAATGGCATCACTTGCTTTAGACCCATTTTTTTTTTATTGGTCAGA; DNA, backbone and methylation of C not given here; listed as Homo sapiens)	1.211	0.4737	2.717	1.51	0.7439	1.568	2.606	1.062	0.7286	2.126	3.196	0.7443	0.9022	0.8613	1.339	4.072	3.121	3.501	0.9963	1.473	ncRNA array expression, patient 30: −2.05
SEQ ID NO 61 (CATACATTGCCCTCACTAATCAATGGACATTTCAGCATTTCATTACTAATTTTGAGAGAA; listed as DNA, chemistry not given here; listed as Homo sapiens)	1.244	1.117	1.12	3.917	0.992	2.069	1.86	1.694	3.678	0.6865	−0.03568	1.984	−0.1143	0.5527	3.802	2.349	2.817	1.264	2.585	3.112	ncRNA array expression, patient 30: 0.254
SEQ ID NO 37 (ACGCACTGGGCGTTGAAGCAGTGCTTTCTGGATTAAATACGAAATACTGATGTCACAAGC; DNA, backbone and methylation of C not given here; listed as Homo sapiens)	1.589	0.3993	0.7773	2.425	−0.3494	1.933	1.302	2.619	3.899	4.51	0.9938	2.575	0.0988	1.771	4.312	3.471	2.31	0.5554	1.732	2.461	ncRNA array expression, patient 30: −1.17
SEQ ID NO 56 (AAAAAATGAGGCAATCTCATCCCGAAACTATTTAAAACTACTCTCCTCTCTCTTGATAAA; listed as DNA, chemistry not given here; listed as Homo sapiens)	−2.014	−1.535	−1.64	−1.4872	−1.129	−1.282	−1.314	−1.818	−2.922	−1.228	−1.698	−1.986	−1.277	−1.277	−1.273	−2.407	−2.501	−1.97	−1.952	−1.912	ncRNA array expression, patient 30: −0.5599
SEQ ID NO 34 (TTTTCTCTGCTTATTACCCTCCCTGTTTCCTCCTGGGCTGCCAACAACATATTATATTAC; listed as DNA, chemistry not given here; listed as Homo sapiens)	2.375	2.833	2.701	2.722	2.606	3.005	2.354	1.958	−1.787	2.243	3.044	2.382	2.727	2.643	1.817	2.013	1.687	2.945	2.485	2.129	ncRNA array expression, patient 30: −0.1242
SEQ ID NO 74 (TATATTACAGGAGTTGTCTATACGATTATAGTACCTGATTCTTTGGACATATCATTGAAC; listed as DNA, chemistry not given here; listed as Homo sapiens)	2.155	1.879	2.326	0.3239	0.8281	2.016	1.309	0.6157	2.172	−0.2091	0.8773	1.569	0.2398	1.776	0.8669	2.599	2.626	0.4062	2.421	1.974	ncRNA array expression, patient 30: −1.075
